Source: US11427595B2, “Compositions and methods for inhibiting viral infection” (Trustees of Boston University, priority 2018, dated 2022)
Where two headings read alike, the source gives them in different places.

Experiments:
[1] = test system: cap-dependent Firefly luciferase (FLuc) translation; test: In vitro translation of bicistronic FF/HCV/Ren mRNA in Krebs-2 extracts, cap-dependent; format: biochemical; conditions: 1 μM, relative to DMSO
Text: (§1) In this system, Firefly luciferase (FLuc) translation is cap-dependent whereas Renilla luciferase (RLuc) expression HCV-IRES dependent. […] Results are presented relative to values obtained in the presence of DMSO ad expressed as mean±error of two biological replicates.
(§2) In this system, translation of the Firefly luciferase (FLuc) translation is cap-dependent whereas Renilla luciferase (RLuc) translation is dependent upon the HCV internal ribosome entry site (IRES) FIG. 11A.
(§3) In vitro transcriptions and translations were performed as described previously. Plasmid encoding the bicistronic FF/HCV/Ren open reading frame was linearized with BamHI and m^7Gppp-capped mRNA was produced by in vitro transcription reactions using SP6 RNA polymerase. In vitro translation reactions were performed with S10 extracts prepared from Kreb-2 cells and programmed with 4 ng/uL of in vitro transcribed mRNA. Firefly (FF) and Renilla (Ren) luciferase activities were measured on a Berthold Lumat LB9507 Luminometer and values normalized against vehicle control, which was set at 1.

[2] = test system: CHIKVpp; format: cell-based, Chikungunya virus; conditions: Huh7.5.1 cells, racemates and single (+)-enantiomers, 1 μM or 2 μM for 3 h, luciferase after 48 h
[3] = test system: HCVcc-Luc; test: HCVcc time-of-addition assay; format: cell-based, Hepatitis C virus; conditions: Huh7.5.1 cells, 0.5 μM for 3 h, luciferase after 48 h
[4] = test system: JFH-1 HCVcc-Luc; test: microbe, parasite or virus in culture; format: cell-based, Hepatitis C virus; conditions: for EC50: Hepatitis C virus, Huh-7.5.1, read-out: EC50, inhibition of HCV infection; for inhibition of HCV infection (in words): Huh7.5.1 cells, comparisons are to aglaroxin C (6)
[5] = test system: Ebolapp; format: cell-based, Ebola virus
[6] = test system: Huh7.5.1 cells; test: Cytotoxicity, CellTiter-Glo Cell Viability Luminescent Assay; format: cell-based, human
Procedure: (§4) To determine the […] of each compound, Huh7.5.1 cells were treated with compounds or DMSO at indicated doses for 3 h in 96-well plates. After removal of compounds, cells were further incubated for 72 h prior to the viability assay. The numbers of viable cells in culture were determined using the CellTiter-Glo Cell Viability Luminescent Assay kit according to the manufacturer's instruction (Promega). Percentages of toxicity were calculated using the formulas: 100-percentage of vial cells relative to that from the dimethyl sulfoxide (DMSO) treated group (100%) (n=3) (FIG. 20-FIG. 57).

[7] = test system: HCV internal ribosome entry site (IRES)-dependent Renilla luciferase (RLuc) translation; test: In vitro translation of bicistronic FF/HCV/Ren mRNA in Krebs-2 extracts, HCV IRES-dependent; format: biochemical, Hepatitis C virus; conditions: 1 μM, relative to DMSO
Text: as §1, §2, §3

[8] = test system: Huh7.5.1 cells; test: MTS cell viability assay; format: cell-based, human; conditions: 3 h treatment, 72 h incubation
Text: In this comparison, niclosamide was used as a positive control, which is known as HCV inhibitor (unclear mechanisms). Data from CellTiter-Glo assay was obtained from separate experiments conducted on a different date.
MTS (3-(4,5-dimethylthiazol-2-yl)-5-(3-carboxymethoxyphenyl)-2-(4-sulfophenyl)-2H-tetrazolium)) assay is a colorimetric assay used to determine the mitochondrial metabolic rate by quantifying the reduced formazan product of MTS in cells to reflect viable cells. To determine the CC50 of each compound, Huh7.5.1 cells were treated with compounds or DMSO at indicated doses for 3 h in 96-well plates. After removal of compounds, cells were further incubated for 72 h prior to conducting the viability assay. The MTS assay in this study is accordance with a protocol provided by manufacturer (Promega, Madison, Wis. USA). One-fifth volume of MTS reagent was added into the culture supernatant at indicated time points. Plates were incubated at 37° C. for 3 hours with 5% CO2 followed by measuring the absorbance at 490 nanometers (nm) with an ELISA reader (SpectraMax Plus 385, Molecular Devices, USA). Percentages of toxicity were calculated using the formulas: 100-percentage of vial cells relative to that from the dimethyl sulfoxide (DMSO) treated group (100%) (n=3) (FIG. 68-FIG. 71).

[9] = test system: HCVpp; format: cell-based, Hepatitis C virus; conditions: Huh7.5.1 cells, racemates and single (+)-enantiomers, 1 μM or 2 μM for 3 h, luciferase after 48 h
[10] = test system: VSVpp; format: cell-based, vesicular stomatitis virus
[11] = test system: HCV replicon cell line 2-3+ (full-length HCV Genotype 1b RNA genome); test: HCV replicon system: viral RNA replication and protein synthesis; format: cell-based, Hepatitis C virus; conditions: 2 μM for 3 h; for HCV RNA replication: viral RNA by real-time PCR after 48 or 72 h; for HCV protein synthesis (translation): NS5 by Western blotting after 48 or 72 h
Procedure: HCV replicon cell line 2-3+ was treated with the indicated compounds for 3 h. Cells were incubated for an additional 48 hours (FIG. 10A and FIG. 10C) or 72 hours (FIG. 10B and FIG. 10D). Cellular RNA or protein was isolated for quantifications of HCV viral RNA by real-time PCR (FIG. 10A and FIG. 10B) or […] NS5 by Western blotting (FIG. 10C and FIG. 10D).
Next, the ability of the aglaroxin C analogues to inhibit HCV RNA replication and mRNA translation was investigated using an HCV replicon system which harbors a full-length HCV Genotype 1b RNA genome. In replicon cells, HCV RNA replicates and is translated into viral proteins without forming infectious viruses. […] To corroborate these findings, an in vitro translation inhibition assay was assembled where a bicistronic reporter mRNA was programmed for translation in Krebs-2 extracts FIG. 11A-11B.
Cells and Antibodies. The human liver cell line Huh7.5.1 was provided by Scripps Research Institute. The full-length HCV Genotype 1b-replicon-containing cell line 2-3(+) was a gift from University of North Carolina, Chapel Hill, N.C. The Aedes albopictus cell line C6/36 was purchased from American Type Culture Collection (ATCC) (CRL-1660). All cell lines were maintained in DMEM supplemented with 5% penicillin and streptomycin, 1% NEAA, and 10% fetal bovine serum (FBS) (Gemini Bio-Products). The β-actin antibody (clone AC-74) was purchased from Sigma. The HCV NS5A monoclonal antibody 9E10 was a gift from Rockefeller University. Secondary antibodies were purchased from Jackson ImmunoResearch Laboratories, Inc, and Molecular Probes (Invitrogen). Primer sequences are: Dengue 16681: F: 5′-[…]-3′ (SEQ ID NO: 3); R: 5′-[…]-3′ (SEQ ID NO: 4). GAPDH: F: 5′-[…]-3′ (SEQ ID NO: 5); R: 5′-[…]-3′ (SEQ ID NO: 6).

[12] = test system: Dengue virus (serotype 2, Thailand 16681 strain); format: cell-based; conditions: Huh7.5.1 cells, MOI 0.1, 2 μM for 3 h, viral RNA 48 h post-infection normalized against GAPDH
[13] = test system: WNV viral envelope protein-mediated entry; format: cell-based, West Nile virus; conditions: Huh7.5 cells, FIG. 73C
[14] = test system: Zika viral envelope protein-mediated entry; format: cell-based, Zika virus; conditions: Huh7.5 cells, FIG. 73C
[15] = test system: translation; conditions: previous studies; cited from earlier work
[16] = test system: Denv viral envelope protein-mediated entry; format: cell-based, Dengue virus; conditions: Huh7.5 cells, FIG. 73C
[17] = test system: OHFV viral envelope protein-mediated entry; format: cell-based, Omsk Hemorrhagic Fever Virus (OHFV)
[18] = test system: JEV viral envelope protein-mediated entry; format: cell-based, Japanese encephalitis virus; conditions: Huh7.5 cells, FIG. 73C
[19] = test system: hepatitis C viral (HCV) entry into host cells; conditions: separate earlier studies; cited from earlier work
[20] = Cytotoxicity, CellTiter-Glo Cell Viability Luminescent Assay; format: cell-based, human; conditions: human; Huh7.5.1 cells, 3 h treatment, viability after 72 h; concentration giving 50% cell death
Procedure: as §4

[21] = test system: Dengue virus (serotype 2, Thailand 16681 strain); conditions: comparison named in the text, no data shown; cited from earlier work

COc1ccc([C@@]23Oc4cc(OC)cc(OC)c4[C@]2(O)c2nc(-c4ccc(C)cc4)[nH]c(=O)c2[C@H]3c2ccccc2)cc1 (racemic) [12l, (5R,5aR,10bS)-10b-Hydroxy-8,10-dimethoxy-5a-(4-methoxyphenyl)-5-phenyl-2-(p-tolyl)-3,5,5a,10b-tetrahydro-4H-benzofuro[2′,3′:4,5]cyclopenta[1,2-d]pyrimidin-4-one]
translation inhibition of firefly luciferase (cap-dependent) [1]: minimal | inhibition of CHIKVpp infection [2]: specifically inhibited | anti-HCV activity when added 3 h after infection was initiated [3]: partially lost their activity | anti-HCV activity when added together with the virus [3]: maximal anti-HCV activity | EC50 [4]: ~500 nM | inhibition of HCV infection (in words) [4]: three-fold greater inhibition | inhibition of Ebolapp infection [5]: not | AUC0.2-200, area under the cytotoxicity curve (in words) [6]: relatively lower cytotoxicities | HCV mRNA (IRES-dependent) translation [7]: not inhibited | toxicity curve in MTS assay compared with CellTiter-Glo assay [8]: nearly identical toxicity curves | inhibition of HCVpp infection [9]: specifically inhibited | inhibition of VSVpp infection [10]: not | HCV RNA replication [11]: neither inhibit HCV RNA replication

COc1ccc([C@@]23Oc4cc(OC)cc(OC)c4[C@]2(O)c2nc(-c4cccc(OC)c4)[nH]c(=O)c2[C@H]3c2ccccc2)cc1 (racemic) [12s, (5R,5aR,10bS)-10b-Hydroxy-8,10-dimethoxy-2-(3-methoxyphenyl)-5a-(4-methoxyphenyl)-5-phenyl-3,5,5a,10b-tetrahydro-4H-benzofuro[2′,3′:4,5]cyclopenta[1,2-d]pyrimidin-4-one]
translation inhibition of firefly luciferase (cap-dependent) [1]: minimal | inhibition of CHIKVpp infection [2]: specifically inhibited | anti-HCV activity when added 3 h after infection was initiated [3]: partially lost their activity | anti-HCV activity when added together with the virus [3]: maximal anti-HCV activity | anti-HCV activity when added together with the virus ([3]; listed as (±)-12s): inhibited HCV infection | EC50 [4]: ~500 nM | inhibition of HCV infection (in words) [4]: three-fold greater inhibition | inhibition of Ebolapp infection [5]: not | AUC0.2-200, area under the cytotoxicity curve (in words) [6]: relatively lower cytotoxicities | HCV mRNA (IRES-dependent) translation [7]: not inhibited | inhibition of HCVpp infection [9]: specifically inhibited | inhibition of VSVpp infection [10]: not | HCV RNA replication [11]: neither inhibit HCV RNA replication

COc1ccc([C@@]23Oc4cc(OC)cc(OC)c4[C@]2(O)c2nc(-c4ccc(C)cc4)[nH]c(=O)c2[C@H]3c2ccccc2)cc1 [(+)-12l]
inhibition of Dengue virus infection [12]: inhibited Dengue virus infection | anti-HCV activity when added together with the virus [3]: inhibited HCV infection | inhibition of HCV infection (in words) [4]: displayed HCV inhibition | maximum cytotoxicity plateau compared to racemic counterparts ([6]; Huh7.5.1 cells): increased substantially | HCV protein synthesis (translation) [11]: did not inhibit | HCV RNA replication [11]: did not inhibit

COc1ccc([C@@]23Oc4cc(OC)cc(OC)c4[C@]2(O)c2nc(-c4cccc(OC)c4)[nH]c(=O)c2[C@H]3c2ccccc2)cc1 [(+)-12s]
inhibition of Dengue virus infection [12]: inhibited Dengue virus infection | inhibition of HCV infection (in words) [4]: displayed HCV inhibition | maximum cytotoxicity plateau compared to racemic counterparts ([6]; Huh7.5.1 cells): increased substantially | HCV protein synthesis (translation) [11]: did not inhibit | HCV RNA replication [11]: did not inhibit

COc1ccc([C@@]23Oc4cc(OC)cc(OC)c4[C@]2(O)C2=C(C(=O)N4CCC[C@H]4N2)[C@H]3c2ccccc2)cc1 [compound 5, aglaiastatin]
% infection, WNV envelope [13]: under 1% | % infection, Zika envelope [14]: under 1% | translation inhibition (in words) [15]: promising translation inhibitor | % infection, Denv envelope [16]: under 1% | % infection, OHFV envelope [17]: under 1% | % infection, JEV envelope [18]: under 1%

COc1ccc([C@@]23Oc4cc(OC)cc(OC)c4[C@]2(O)c2nc4n(c(=O)c2[C@H]3c2ccccc2)CCC4)cc1 [compound 6, Aglaroxin C, reference compound]
translation inhibition of firefly luciferase (cap-dependent) [1]: minimal | translation inhibition (in words) [15]: only moderate translation inhibition | anti-HCV activity when added 3 h after infection was initiated [3]: partially lost their activity | anti-HCV activity when added together with the virus [3]: maximal anti-HCV activity | EC50 [4]: 1300 nM | concentration inhibiting HCV entry into host cells [19]: low μM concentration | CC50 [20]: 12000 nM | cytotoxicity (in words) ([6]; Huh7.5.1 cells, comparisons are to aglaroxin C (6)): plateauing of cytotoxicity | HCV mRNA (IRES-dependent) translation [7]: not inhibited | HCV RNA replication [11]: neither inhibit HCV RNA replication

COc1ccc([C@@]23Oc4cc(OC)cc(OC)c4[C@]2(O)[C@H](O)[C@H](C(=O)N(C)C)[C@H]3c2ccccc2)cc1 [rocaglamide]
inhibition of Dengue virus infection [21]: inhibited Dengue virus infection
